Converted amounts (≈) assume the structure as drawn.
How the values were obtained:
[1] = tested on: Escherichia coli NIHJ; assay: MIC against standard strain, plate method; format: cell-based; conditions: unit assumed
Outline: (§1)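 Agar plate dilution MIC in heart infusion agar, pH 7.4. Inoculum was 10^4 cells per plate, from a suspension of 10^6 cells/ml.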

[2] = tested on: Klebsiella pneumoniae; assay: MIC against standard strain, plate method; format: cell-based; conditions: unit assumed
Outline: as §1

[3] = tested on: Proteus vulgaris 3027; assay: MIC against standard strain, plate method; format: cell-based; conditions: Proteus vulgaris 3027, standard strain; unit assumed
Outline: as §1

[4] = tested on: Pseudomonas aeruginosa I.F.O.; assay: MIC against standard strain, plate method; format: cell-based; conditions: unit assumed
Outline: as §1

[5] = tested on: Staphylococcus aureus 209p; assay: MIC against standard strain, plate method; format: cell-based; conditions: unit assumed
Outline: as §1

[6] = tested on: Staphylococcus aureus; assay: MIC against clinical isolates; format: cell-based; conditions: unit assumed
[7] = tested on: Escherichia coli; assay: MIC against clinical isolates; format: cell-based; conditions: unit assumed
[8] = tested on: Pseudomonas aeruginosa; assay: MIC against clinical isolates; format: cell-based; conditions: unit assumed
[9] = tested on: Klebsiella pneumoniae; assay: MIC against clinical isolates; format: cell-based; conditions: unit assumed
[10] = tested on: Shigella flexneri; assay: MIC against clinical isolates; format: cell-based; conditions: unit assumed
Description: (§2) The minimum inhibitory concentrations (MIC) was determined by the plate method disclosed in "Chemotherapy" (Japan), Vol. 16, (1968), pages 98 - 99. The culture medium used was a Heart infusion agar (pH 7.4). The number of the cells per plate used in the inoculum as 10^4 (10^6 cells/ml).
(§3) MIC was determined in the same manner as in the preceding paragraph (1).

[11] = tested on: Shigella sonnei; assay: MIC against clinical isolates; format: cell-based; conditions: unit assumed
Description: as §2, §3

[12] = tested on: Salmonella typhi; assay: MIC against clinical isolates; format: cell-based; conditions: unit assumed
[13] = tested on: Salmonella typhi-murium; assay: MIC against clinical isolates; format: cell-based; conditions: unit assumed
[14] = tested on: Proteus mirabilis; assay: MIC against clinical isolates; format: cell-based; conditions: clinical isolate, unit assumed
[15] = tested on: Proteus morganii; assay: MIC against clinical isolates; format: cell-based; conditions: clinical isolate, unit assumed
[16] = tested on: Proteus vulgaris; assay: MIC against clinical isolates; format: cell-based; conditions: clinical isolate, unit assumed
[17] = tested on: Proteus rettgeri; assay: MIC against clinical isolates; format: cell-based; conditions: clinical isolate, unit assumed
[18] = tested on: β-lactamase; assay: Resistant activity against β-lactamase, iodometric assay; format: biochemical, Pseudomonas aeruginosa GN 238; conditions: relative to Potassium Penicillin G = 100
Description: (3) Resistant activity against β-lactamase, Pseudomonas aergionan GN 238:
The resistant activity of each compound against β-lactamase was measured in the manner described below.
β-Lactamase was prepared from Pseudomonas aeruginosa GN 238. This microorganism was cultured in 100 ml of a medium containing 2 g of yeast extract, 10 g of polypeptone, 2 g of glucose, 7 g of disodium hydrogen phosphate, 2 g of potassium dihydrogen phosphate, 1.2 g of ammonium sulfate and 0.4 g of magnesium sulfate, per liter, in a 500-ml Erlenmeyer flask for 6 hrs. at 37° C with shaking. The resulting cells were collected by centrifugation (5,000 r.p.m. × 10 min.), washed three times with 0.1 M phosphate buffer (pH 7.0). Subsequently, the cells were subjected to sonication (20 KHz, 20 min.) and then centrifuged at 15,000 r.p.m. for 60 min. By using the supernatant of enzyme fluid, the resistance of each compound against β-lactamase was determined by the iodometric assay method. Each numeral shown in Table 7 is a relative activity value calculated by assuming as 100 the activity of the control Potassium Penicillin G.

[19] = clinical isolate GN (number not given; Table 5-3)

CC1(C)S[C@@H]2[C@H](NC(=O)[C@H](N)c3ccccc3)C(=O)N2[C@H]1C(=O)O [Sodium Ampicillin, SodiumAmpicillin, reference compound]
MIC [1]: < 1.57 µg/mL
MIC [2]: 50 µg/mL
MIC [3]: > 200 µg/mL
MIC [4]: > 200 µg/mL
MIC [5]: < 1.57 µg/mL
MIC ([6]; clinical isolate F-2): 0.79 µg/mL
MIC ([6]; clinical isolate F-5): 50 µg/mL
MIC ([6]; clinical isolate MS 8588): 6.25 µg/mL
MIC ([6]; clinical isolate MS 8619): < 0.4 µg/mL
MIC ([7]; clinical isolate GN 3452): 6.25 µg/mL
MIC ([7]; clinical isolate GN 3481): 6.25 µg/mL
MIC ([7]; clinical isolate GN 3611): > 200 µg/mL
MIC ([7]; clinical isolate K-1): 6.25 µg/mL
MIC ([7]; clinical isolate K-2): 6.25 µg/mL
MIC ([7]; clinical isolate K-3): > 200 µg/mL
MIC ([8]; clinical isolate GN 82): > 200 µg/mL
MIC ([8]; clinical isolate GN 163): > 200 µg/mL
MIC ([8]; clinical isolate GN 221): > 200 µg/mL
MIC ([8]; clinical isolate GN 376): > 200 µg/mL
MIC ([8]; clinical isolate GN 383): > 200 µg/mL
MIC ([8]; clinical isolate GN 1035): > 200 µg/mL
MIC ([8]; clinical isolate GN 1091): > 200 µg/mL
MIC ([8]; clinical isolate GN 2565): > 200 µg/mL
MIC ([8]; clinical isolate GN 2987): > 200 µg/mL
MIC [8, 19]: > 200 µg/mL
MIC ([8]; clinical isolate S-1): > 200 µg/mL
MIC ([8]; clinical isolate S-2): > 200 µg/mL
MIC ([8]; clinical isolate S-3): > 200 µg/mL
MIC ([8]; clinical isolate S-4): > 200 µg/mL
MIC ([9]; clinical isolate GN 917): 25 µg/mL
MIC ([9]; clinical isolate GN 3850): 50 µg/mL
MIC ([9]; clinical isolate GN 4081): > 200 µg/mL
MIC ([9]; clinical isolate GN 4117): > 200 µg/mL
MIC ([10]; clinical isolate JS 11839): 1.57 µg/mL
MIC ([11]; clinical isolate JS 11232): > 200 µg/mL
MIC ([11]; clinical isolate JS 11755): 6.25 µg/mL
MIC ([12]; clinical isolate SL 819): 1.56 µg/mL
MIC ([12]; clinical isolate SL 2169): 0.78 µg/mL
MIC ([13]; clinical isolate SL 858): 3.13 µg/mL
MIC ([13]; clinical isolate SL 2136): > 200 µg/mL
MIC [14]: < 1.57 µg/mL
MIC [15]: < 1.57 µg/mL
MIC [16]: < 1.5 µg/mL
MIC [17]: 200 µg/mL

CN1CCN(C(=O)N[C@@H](C(=O)N[C@@H]2C(=O)N3[C@@H]2SC(C)(C)[C@@H]3C(=O)O)c2ccccc2)C(=O)C1=O (single isomer, unassigned) [compound 37]
MIC [1]: < 1.57 µg/mL
MIC [3]: < 1.57 µg/mL
MIC [5]: < 1.57 µg/mL
MIC ([6]; clinical isolate F-2): 1.57 µg/mL (≈ 3.12 µM)
MIC ([6]; clinical isolate F-5): > 200 µg/mL
MIC ([6]; clinical isolate MS 8619): 0.79 µg/mL (≈ 1.57 µM)
MIC ([7]; clinical isolate GN 3465): 200 µg/mL (≈ 397 µM)
MIC ([7]; clinical isolate GN 3611): > 200 µg/mL
MIC ([7]; clinical isolate K-3): > 200 µg/mL
MIC ([8]; clinical isolate GN 383): 25 µg/mL (≈ 49.6 µM)
MIC ([8]; clinical isolate GN 1035): 50 µg/mL (≈ 99.3 µM)
MIC ([8]; clinical isolate GN 2565): 25 µg/mL (≈ 49.6 µM)
MIC ([8]; clinical isolate GN 2987): 25 µg/mL (≈ 49.6 µM)
MIC [8, 19]: 50 µg/mL (≈ 99.3 µM)
MIC ([8]; clinical isolate S-1): 200 µg/mL (≈ 397 µM)
MIC ([8]; clinical isolate S-2): 25 µg/mL (≈ 49.6 µM)
MIC ([8]; clinical isolate S-3): 50 µg/mL (≈ 99.3 µM)
MIC ([8]; clinical isolate S-4): 100 µg/mL (≈ 199 µM)
MIC ([9]; clinical isolate GN 3850): 25 µg/mL (≈ 49.6 µM)
MIC ([9]; clinical isolate GN 4081): 200 µg/mL (≈ 397 µM)
MIC ([9]; clinical isolate GN 4117): 100 µg/mL (≈ 199 µM)
MIC ([10]; clinical isolate JS 11215): > 200 µg/mL
MIC ([11]; clinical isolate JS 11232): 100 µg/mL (≈ 199 µM)
MIC ([12]; clinical isolate SL 819): 6.25 µg/mL (≈ 12.4 µM)
MIC ([12]; clinical isolate SL 2169): 3.13 µg/mL (≈ 6.22 µM)
MIC ([13]; clinical isolate SL 858): 12.5 µg/mL (≈ 24.8 µM)
MIC ([13]; clinical isolate SL 2136): > 200 µg/mL
MIC [14]: 0.79 µg/mL (≈ 1.57 µM)
MIC [15]: 0.79 µg/mL (≈ 1.57 µM)
MIC [16]: < 0.4 µg/mL
MIC [17]: 25 µg/mL (≈ 49.6 µM)
Relative activity [18]: 15%

Source: US4110327A, “2,3 Diketo-piperazinocarbonylamino alkanoic acids and derivatives” (Toyama Chemical Co., Ltd., priority 1974, dated 1978)
